Assay results as given in the NIST ThermoML archive (doi:10.1016/j.fluid.2010.03.010).
± gives the expanded uncertainty stated by the source.

Details: Liquid, Vibrating tube method

Structure (SMILES): CCCC[n+]1ccn(C)c1.O=S(=O)([N-]S(=O)(=O)C(F)(F)F)C(F)(F)F
- mass density (319.15 K, 101.33 kPa): 1416.47 ± 11 kg/m3
- mass density (320.15 K, 101.33 kPa): 1415.53 ± 11 kg/m3
- mass density (321.15 K, 101.33 kPa): 1414.58 ± 11 kg/m3
- mass density (322.15 K, 101.33 kPa): 1413.64 ± 11 kg/m3
- mass density (323.15 K, 100 kPa): 1413.5 ± 11 kg/m3
- mass density (323.15 K, 101.33 kPa): 1412.7 ± 11 kg/m3
- mass density (323.15 K, 250 kPa): 1413.6 ± 11 kg/m3
- mass density (323.15 K, 500 kPa): 1413.8 ± 11 kg/m3
- mass density (323.15 K, 1010 kPa): 1414.2 ± 11 kg/m3
- mass density (323.15 K, 2000 kPa): 1415 ± 11 kg/m3
- mass density (323.15 K, 4990 kPa): 1417.4 ± 11 kg/m3
- mass density (323.15 K, 10010 kPa): 1421.3 ± 11 kg/m3
- mass density (323.15 K, 14990 kPa): 1425.1 ± 11 kg/m3
- mass density (323.15 K, 20010 kPa): 1428.8 ± 12 kg/m3
- mass density (323.15 K, 24990 kPa): 1432.4 ± 12 kg/m3
- mass density (323.15 K, 30010 kPa): 1435.9 ± 12 kg/m3
- mass density (323.15 K, 35010 kPa): 1439.4 ± 12 kg/m3
- mass density (323.15 K, 40000 kPa): 1442.8 ± 12 kg/m3
- mass density (323.15 K, 45000 kPa): 1446.1 ± 12 kg/m3
- mass density (323.15 K, 50000 kPa): 1449.4 ± 12 kg/m3
- mass density (323.15 K, 55000 kPa): 1452.6 ± 12 kg/m3
- mass density (323.15 K, 60000 kPa): 1455.8 ± 12 kg/m3
- mass density (324.15 K, 101.33 kPa): 1411.76 ± 11 kg/m3
- mass density (325.15 K, 101.33 kPa): 1410.82 ± 11 kg/m3
- mass density (326.15 K, 101.33 kPa): 1409.88 ± 11 kg/m3
- mass density (327.15 K, 101.33 kPa): 1408.94 ± 11 kg/m3
- mass density (328.15 K, 101.33 kPa): 1408 ± 11 kg/m3
- mass density (329.15 K, 101.33 kPa): 1407.06 ± 11 kg/m3
- mass density (330.15 K, 101.33 kPa): 1406.12 ± 11 kg/m3
- mass density (331.15 K, 101.33 kPa): 1405.19 ± 11 kg/m3
- mass density (332.15 K, 101.33 kPa): 1404.25 ± 11 kg/m3
- mass density (333.15 K, 100 kPa): 1404.2 ± 11 kg/m3
- mass density (333.15 K, 101.33 kPa): 1403.32 ± 11 kg/m3
- mass density (333.15 K, 250 kPa): 1404.3 ± 11 kg/m3
- mass density (333.15 K, 500 kPa): 1404.5 ± 11 kg/m3
- mass density (333.15 K, 1010 kPa): 1404.9 ± 11 kg/m3
- mass density (333.15 K, 2000 kPa): 1405.8 ± 11 kg/m3
- mass density (333.15 K, 4990 kPa): 1408.2 ± 11 kg/m3
- mass density (333.15 K, 10000 kPa): 1412.3 ± 11 kg/m3
- mass density (333.15 K, 14990 kPa): 1416.2 ± 11 kg/m3
- mass density (333.15 K, 20010 kPa): 1420 ± 11 kg/m3
- mass density (333.15 K, 25000 kPa): 1423.6 ± 11 kg/m3
- mass density (333.15 K, 30010 kPa): 1427.3 ± 12 kg/m3
- mass density (333.15 K, 34990 kPa): 1430.8 ± 12 kg/m3
- mass density (333.15 K, 40010 kPa): 1434.3 ± 12 kg/m3
- mass density (333.15 K, 45000 kPa): 1437.6 ± 12 kg/m3
- mass density (333.15 K, 50000 kPa): 1441 ± 12 kg/m3
- mass density (333.15 K, 54990 kPa): 1444.3 ± 12 kg/m3
- mass density (333.15 K, 60000 kPa): 1447.5 ± 12 kg/m3
- mass density (334.15 K, 101.33 kPa): 1402.39 ± 11 kg/m3
- mass density (335.15 K, 101.33 kPa): 1401.45 ± 11 kg/m3
- mass density (336.15 K, 101.33 kPa): 1400.52 ± 11 kg/m3
- mass density (337.15 K, 101.33 kPa): 1399.59 ± 11 kg/m3
- mass density (338.15 K, 101.33 kPa): 1398.66 ± 11 kg/m3
- mass density (339.15 K, 101.33 kPa): 1397.73 ± 11 kg/m3
- mass density (340.15 K, 101.33 kPa): 1396.8 ± 11 kg/m3
- mass density (341.15 K, 101.33 kPa): 1395.87 ± 11 kg/m3
- mass density (342.15 K, 101.33 kPa): 1394.94 ± 11 kg/m3
- mass density (343.15 K, 100 kPa): 1395 ± 11 kg/m3
- mass density (343.15 K, 101.33 kPa): 1394.01 ± 11 kg/m3
- mass density (343.15 K, 250 kPa): 1395.1 ± 11 kg/m3
- mass density (343.15 K, 500 kPa): 1395.3 ± 11 kg/m3
- mass density (343.15 K, 1000 kPa): 1395.7 ± 11 kg/m3
- mass density (343.15 K, 2000 kPa): 1396.6 ± 11 kg/m3
- mass density (343.15 K, 4990 kPa): 1399.1 ± 11 kg/m3
- mass density (343.15 K, 10010 kPa): 1403.3 ± 11 kg/m3
- mass density (343.15 K, 14910 kPa): 1407.2 ± 11 kg/m3
- mass density (343.15 K, 20000 kPa): 1411.2 ± 11 kg/m3
- mass density (343.15 K, 24990 kPa): 1414.9 ± 11 kg/m3
- mass density (343.15 K, 30010 kPa): 1418.7 ± 11 kg/m3
- mass density (343.15 K, 34990 kPa): 1422.3 ± 11 kg/m3
- mass density (343.15 K, 39990 kPa): 1425.8 ± 12 kg/m3
- mass density (343.15 K, 45000 kPa): 1429.3 ± 12 kg/m3
- mass density (343.15 K, 50000 kPa): 1432.7 ± 12 kg/m3
- mass density (343.15 K, 55000 kPa): 1436.1 ± 12 kg/m3
- mass density (343.15 K, 60000 kPa): 1439.4 ± 12 kg/m3
- mass density (344.15 K, 101.33 kPa): 1393.09 ± 11 kg/m3
